Results as given in patent US11964960B2 (Cornell University, priority 2018, dated 2024).
Structures can show the parent of a compound that is named as a salt.

Target: T1, S1P2 (Homo sapiens, UniProt O95136)
T1 construct: Flag; expressed in transfected cells; host or cells: Chinese hamster ovary (CHO) cells, doxycycline-inducible (CHO-S1P2-FL / CHO-S1PR2 FL)
Assay: GLISA RhoA activation - antagonist assay
Format: cell-based
Conditions: 1 μM compound, CHO-S1P2-FL cells
Experimental: GLISA RhoA Activation—Antagonist Assay
GLISA assays were performed using RhoA (BK124) activation kit purchased from Cytoskeleton Inc., Denver, CO Doxycycline-inducible Flag-tag S1P2 expressing Chinese hamster ovary (CHO) cells (CHO-S1P2-FL) were seeded in a 6-well plate, 1.5×10^5 cells per well. Cells were stimulated with […] of Doxycycline to induce S1P2 expression in serum free IMDM media with 0.1% BSA/PBS. Following day, cells were stimulated with the compounds described herein (1 nM-10 μM) or 1 μM JTE-013 for 1 hour at 37° C. Following compound incubation, cells were washed with PBS×3 and induced with 100 nM […] for 5 min. […] Protein concentration was examined using GLISA—Precision Red Advanced Protein assay reagent as described in assay manual. Lysates were immobilized on GTP-bound capture plate and GLISA assay was performed based on manufacture recommendations as reported previously.

T1 sequence (O95136 whole entry, species assumed): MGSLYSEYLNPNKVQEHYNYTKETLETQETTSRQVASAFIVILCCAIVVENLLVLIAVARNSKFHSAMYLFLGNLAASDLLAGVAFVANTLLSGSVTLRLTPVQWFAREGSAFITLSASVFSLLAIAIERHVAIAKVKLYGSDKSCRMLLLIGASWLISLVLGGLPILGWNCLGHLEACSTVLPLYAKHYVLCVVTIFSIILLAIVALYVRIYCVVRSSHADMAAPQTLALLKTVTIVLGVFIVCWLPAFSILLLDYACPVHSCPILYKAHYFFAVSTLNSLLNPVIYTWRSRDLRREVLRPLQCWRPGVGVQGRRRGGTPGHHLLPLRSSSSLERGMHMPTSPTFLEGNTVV

Question: With Cc1cc(C(=O)Cn2cc(C#N)ccc2=O)c(C)n1C(C)c1ccccc1 (stereo not shown) [Example 92, 1-(2-(2,5-Dimethyl-1-(1-phenylethyl)-1H-pyrrol-3-yl)-2-oxoethyl)-6-oxo-1,6-dihydropyridine-3-carbonitrile] as the compound, how does the inhibition at 1 µM read?
Answer: 31%

Question: How did the inhibition at 1 µM turn out when Cc1cc(C(=O)C(C)n2cc(Br)ccc2=O)c(C)n1Cc1ccc(C#N)cc1 (stereo not shown) [Compound 16, 4-((3-(2-(5-bromo-2-oxopyridin-1(2H)-yl)propanoyl)-2,5-dimethyl-1H-pyrrol-1-yl)methyl)benzonitrile] was run?
Answer: 39%

Question: How did the inhibition at 1 µM turn out when Cc1cc(C(=O)C(C)n2cc(Br)ccc2=O)c(C)n1Cc1cccc(Cl)c1 (stereo not shown) [Compound 22, 5-bromo-1-(1-(1-(3-chlorobenzyl)-2,5-dimethyl-1H-pyrrol-3-yl)-1-oxopropan-2-yl)pyridin-2(1H)-one] was run?
Answer: 73%

Question: Which inhibition at 1 µM does the source give for Cc1cc(C(=O)C(C)n2cc(Br)ccc2=O)c(C)n1Cc1ccccc1F (stereo not shown) [Compound 19, 5-bromo-1-(1-(1-(2-fluorobenzyl)-2,5-dimethyl-1H-pyrrol-3-yl)-1-oxopropan-2-yl)pyridin-2(1H)-one] here?
Answer: 44%

Question: Cc1cc(C(=O)C(C)n2cc(Br)ccc2=O)c(C)n1Cc1cccc(C(=O)O)c1 (stereo not shown) [Compound 23, 3-((3-(2-(5-bromo-2-oxopyridin-1(2H)-yl)propanoyl)-2,5-dimethyl-1H-pyrrol-1-yl)metnyl)benzoic add] was tested. Which inhibition at 1 µM did it give?
Answer: 69%

Question: Which inhibition at 1 µM does the source give for Cc1cc(C(=O)Cn2cc(C#N)ccc2=O)c(C)n1Cc1ccc2c(c1)OCO2 [Example 93, 1-(2-(1-(Benzo[d][1,3]dioxol-5-ylmethyl)-2,5-dimethyl-1H-pyrrol-3-yl)-2-oxoethyl)-6-oxo-1,6-dihydropyridine-3-carbonitrile] here?
Answer: 10%

Question: For Cc1cc(C(=O)Cn2cc(I)ccc2=O)c(C)n1Cc1ccccc1 [Compound 2, 1-(2-(1-benzyl-2,5-dimethyl-1H-pyrrol-3-yl)-2-oxoethyl)-5-iodopyridin-2(1H)-one], which inhibition at 1 µM is on record?
Answer: 57%

Question: Which inhibition at 1 µM does the source give for Cc1nnc(Cn2c(C)cc(C(=O)C(C)n3cc(Br)ccc3=O)c2C)o1 (stereo not shown) [Example 57, 5-Bromo-1-(1-(2,5-dimethyl-1-((5-methyl-1,3,4-oxadiazol-2-yl)methyl)-1H-pyrrol-3-yl)-1-oxopropan-2-yl)pyridin-2(1H)-one] here?
Answer: 10%

Question: For Cc1cc(C(=O)Cn2cc(Br)ccc2=O)nn1Cc1ccc(F)cc1 [Example 68, 5-Bromo-1-(2-(1-(4-fluorobenzyl)-5-methyl-1H-pyrazol-3-yl)-2-oxoethyl)pyridin-2(1H)-one], which inhibition at 1 µM is on record?
Answer: 18%

Question: For Cc1nc(Cn2c(C)cc(C(=O)C(C)n3cc(Br)ccc3=O)c2C)no1 (stereo not shown) [Compound 5, 5-bromo-1-(1-(2,5-dimethyl-1-((5-methyl-1,2,4-oxadiazol-3-yl)methyl)-1H-pyrrol-3-yl)-1-oxopropan-2-yl)pyridin-2(1H)-one], which inhibition at 1 µM is on record?
Answer: 48%

Question: How did the inhibition at 1 µM turn out when Cc1cc(C(=O)C(C)n2cc(Br)ccc2=O)c(C)n1Cc1cnn(C)c1 (stereo not shown) [Compound 8, 5-bromo-1-(1-(2,5-dimethyl-1-((1-methyl-1H-pyrazol-4-yl)methyl)-1H-pyrrol-3-yl)-1-oxopropan-2-yl)pyridin-2(1H)-one] was run?
Answer: 20%

Question: Which inhibition at 1 µM does the source give for Cc1cc(Cn2c(C)cc(C(=O)C(C)n3cc(Br)ccc3=O)c2C)no1 (stereo not shown) [Compound 9, 5-bromo-1-(1-(2,5-dimethyl-1-((5-methylisoxazol-3-yl)methyl)-1H-pyrrol-3-yl)-1-oxopropan-2-yl)pyridin-2(1H)-one] here?
Answer: 32%

Question: With Cc1cc(C(=O)C(C)n2cc(Br)ccc2=O)c(C)n1CC1CCCOC1 (stereo not shown) [Compound 11, 5-bromo-1-(1-(2,5-dimethyl-1-((tetrahydro-2H-pyran-3-yl)methyl)-1H-pyrrol-3-yl)-1-oxopropan-2-yl)pyridin-2(1H)-one] as the compound, how does the inhibition at 1 µM read?
Answer: 30%

Question: COC(=O)c1ccc(=O)n(CC(=O)c2cc(C)n(Cc3ccccc3)c2C)c1 [Example 90] was tested. Which inhibition at 1 µM did it give?
Answer: < 10%

Question: How did the inhibition at 1 µM turn out when Cc1nc(C(=O)Cn2cc(Br)ccc2=O)c(C)n1Cc1ccc(F)cc1 [Compound 30, 5-bromo-1-(2-(1-(4-fluorobenzyl)-2,5-dimethyl-1H-imidazol-4-yl)-2-oxoethyl)pyridin-2(1H)-one] was run?
Answer: 64%

Question: For Cc1cc(C(=O)C(C)n2cc(Br)ccc2=O)c(C)n1Cc1ccn(C)n1 (stereo not shown) [Compound 12, 5-bromo-1-(1-(2,5-dimethyl-1-((1-methyl-1H-pyrazol-3-yl)methyl)-1H-pyrrol-3-yl)-1-oxopropan-2-yl)pyridin-2(1H)-one], which inhibition at 1 µM is on record?
Answer: 41%

Question: With Cc1cc(C(=O)C(C)n2cc(Br)ccc2=O)c(C)n1Cc1cccc(C(F)F)c1 (stereo not shown) [Compound 21, 5-bromo-1-(1-(1-(3-(difluoromethyl)benzyl)-2,5-dimethyl-1H-pyrrol-3-yl)-1-oxopropan-2-yl)pyridin-2(1H)-one] as the compound, how does the inhibition at 1 µM read?
Answer: 42%

Same assay, conditions: CHO-S1P2-FL cells, 1 hour compound incubation, then for 5 min

Question: Which IC50 does the source give for C=Cc1ccc(=O)n(CC(=O)c2nnn(Cc3ccccc3)c2C)c1 [Example 89, 1-(2-(1-Benzyl-5-methyl-1H-1,2,3-triazol-4-yl)-2-oxoethyl)-5-vinylpyridin-2(1H)-one] here?
Answer: 65 nM

Question: With Cc1c(C(=O)Cn2cc(Br)c(F)cc2=O)cnn1Cc1ccccc1 [Example 72, 1-(2-(1-Benzyl-5-methyl-1H-pyrazol-4-yl)-2-oxoethyl)-5-bromo-4-fluoropyridin-2(1H)-one] as the compound, how does the IC50 read?
Answer: 91 nM

Question: Cc1cc(C(=O)C(C)n2cc(Br)ccc2=O)c(C)n1Cc1cccc(Cl)c1 (stereo not shown) [Compound 22, 5-bromo-1-(1-(1-(3-chlorobenzyl)-2,5-dimethyl-1H-pyrrol-3-yl)-1-oxopropan-2-yl)pyridin-2(1H)-one] was tested. Which IC50 did it give?
Answer: 793 nM

Question: How did the IC50 turn out when Cc1cc(C(=O)C(C)n2cc(Br)ccc2=O)c(C)n1Cc1cccc(C(=O)O)c1 (stereo not shown) [Compound 23, 3-((3-(2-(5-bromo-2-oxopyridin-1(2H)-yl)propanoyl)-2,5-dimethyl-1H-pyrrol-1-yl)metnyl)benzoic add] was run?
Answer: 297 nM

Question: Cc1c(C(=O)Cn2cc(Br)ncc2=O)cnn1Cc1ccccc1 [Example 70, 1-(2-(1-Benzyl-5-methyl-1H-pyrazol-4-yl)-2-oxoethyl)-5-bromopyrazin-2(1H)-one] was tested. Which IC50 did it give?
Answer: 181 nM

Question: Which IC50 does the source give for Cc1cc(C(=O)Cn2cc(I)ccc2=O)c(C)n1Cc1ccccc1 [Compound 2, 1-(2-(1-benzyl-2,5-dimethyl-1H-pyrrol-3-yl)-2-oxoethyl)-5-iodopyridin-2(1H)-one] here?
Answer: 1470 nM

Question: Which IC50 does the source give for C#Cc1ccc(=O)n(C(C)C(=O)c2cnn(Cc3ccccc3)c2C)n1 (stereo not shown) [Example 73, 2-(1-(1-Benzyl-5-methyl-1H-pyrazol-4-yl)-1-oxopropan-2-yl)-6-ethynylpyridazin-3(2H)-one] here?
Answer: 59 nM

Question: COc1ccc(=O)n(CC(=O)c2cc(C)n(Cc3ccccc3)c2C)c1 [Example 50, 1-(2-(1-Benzyl-2,5-dimethyl-1H-pyrrol-3-yl)-2-oxoethyl)-5-methoxypyridin-2(1H)-one] was tested. Which IC50 did it give?
Answer: > 10000 nM

Question: How did the IC50 turn out when Cc1cc(C(=O)C(Cc2ccccc2)n2cc(C#N)ccc2=O)c(C)n1Cc1ccccc1 (stereo not shown) [Example 51, 1-(1-(1-Benzyl-2,5-dimethyl-1H-pyrrol-3-yl)-1-oxo-3-phenylpropan-2-yl)-6-oxo-1,6-dihydropyridine-3-carbonitrile] was run?
Answer: > 10000 nM

Question: For C=Cc1ccc(=O)n(CC(=O)c2cnn(Cc3ccccn3)c2CC)c1 [Example 80, 1-(2-(5-Ethyl-1-(pyridin-2-ylmethyl)-1H-pyrazol-4-yl)-2-oxoethyl)-5-vinylpyridin-2(1H)-one], which IC50 is on record?
Answer: 97 nM

Question: How did the IC50 turn out when C=C(C)c1ccc(=O)n(CC(=O)c2cnn(Cc3ccccc3)c2C)c1 [Example 81, 1-(2-(1-Benzyl-5-methyl-1H-pyrazol-4-yl)-2-oxoethyl)-5-(prop-1-en-2-yl)pyridin-2(1H)-one] was run?
Answer: 181 nM

Question: How did the IC50 turn out when Cc1nc(C(=O)Cn2cc(Br)ccc2=O)c(C)n1Cc1ccc(F)cc1 [Compound 30, 5-bromo-1-(2-(1-(4-fluorobenzyl)-2,5-dimethyl-1H-imidazol-4-yl)-2-oxoethyl)pyridin-2(1H)-one] was run?
Answer: 595 nM

Question: How did the IC50 turn out when C=Cc1ccc(=O)n(C(C)C(=O)c2cnn(Cc3ccccn3)c2C)c1 (stereo not shown) [Example 79, 1-(1-(5-Methyl-1-(pyridin-2-ylmethyl)-1H-pyrazol-4-yl)-1-oxopropan-2-yl)-5-vinylpyridin-2(1H)-one] was run?
Answer: 50 nM

Question: For O=c1ccc(Br)cn1Cc1nccc2c1cnn2Cc1ccccc1 [Compound 130, 1-((1-Benzyl-1H-pyrazolo[4,3-c]pyridin-4-y)methyl)-5-bromopyridin-2(1H)-one hydrochloride], which IC50 is on record?
Answer: 140 nM
